# Assay results: ChEMBL document CHEMBL1201862, “PubChem BioAssay data set” (2004)
#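 96-well plates; 48 h exposure; 5 concentrations. Endpoints by linear interpolation between flanking doses. Not reached: highest tested concentration assigned. The concentration for 50% growth inhibition is given as GI50.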 Calls of active or inactive are those of the source. Cut-off read from the data, not from the text of the source: active = GI50 up to about 1.1 µM and inactive = higher.
# Experiments:
# Assay in all cases: NCI-60 cell line screen, 48 h
# SNB-19 = test system: SNB-19
# M14 = test system: M14
# Malme-3M = test system: Malme-3M
# PC-3 = test system: PC-3
# HCT-15 = test system: HCT-15
# K562 = test system: K562
# MDA-MB-435 = test system: MDA-MB-435
# SF-539 = test system: SF-539
# OVCAR-8 = test system: OVCAR-8
# IGROV-1 = test system: IGROV-1
# BT-549 = test system: BT-549
# LOX IMVI = test system: LOX IMVI
# HOP-62 = test system: HOP-62
# COLO 205 = test system: COLO 205
# MDA-MB-231 = test system: MDA-MB-231
# KM12 = test system: KM12
# HL-60 = test system: HL-60
# RPMI-8226 = test system: RPMI-8226
# HCC 2998 = test system: HCC 2998
# SN12C = test system: SN12C
# U-251 = test system: U-251
# OVCAR-4 = test system: OVCAR-4
# HOP-92 = test system: HOP-92
# 786-0 = test system: 786-0
# SF-268 = test system: SF-268
# ACHN = test system: ACHN
# OVCAR-5 = test system: OVCAR-5
# NCI-H23 = test system: NCI-H23
# MCF7 = test system: MCF7
# HT-29 = test system: HT-29
# A498 = test system: A498
# SW-620 = test system: SW-620
# DU-145 = test system: DU-145
# UACC-257 = test system: UACC-257
# SK-MEL-28 = test system: SK-MEL-28
# T47D = test system: T47D
# SK-MEL-2 = test system: SK-MEL-2
# EKVX = test system: EKVX
# TK-10 = test system: TK-10
# RXF 393 = test system: RXF 393
# SF-295 = test system: SF-295
# SR = test system: SR
# SK-OV-3 = test system: SK-OV-3
# CCRF-CEM = test system: CCRF-CEM
# MOLT-4 = test system: MOLT-4
# SK-MEL-5 = test system: SK-MEL-5
# UO-31 = test system: UO-31
# OVCAR-3 = test system: OVCAR-3
# NCI-H226 = test system: NCI-H226
# NCI-H460 = test system: NCI-H460
# NCI/ADR-RES = test system: NCI/ADR-RES
# Hs-578T = test system: Hs-578T
# MDA-N = test system: MDA-N
# A549 = test system: A549
# CAKI-1 = test system: CAKI-1
# SNB-75 = test system: SNB-75
# UACC-62 = test system: UACC-62
# HCT-116 = test system: HCT-116
# NCI-H522 = test system: NCI-H522
structure (smiles),measurement,setting,value
C=CC(=O)N1C/C(=C\c2ccc(OC)cc2)C(=O)/C(=C/c2ccc(OC)cc2)C1,GI50,SNB-19,7.18 µM (inactive)
same,GI50,M14,2.15 µM (inactive)
same,GI50,Malme-3M,2.19 µM (inactive)
same,GI50,PC-3,1.83 µM (inactive)
same,GI50,HCT-15,1.56 µM
same,GI50,K562,2.86 µM (inactive)
same,GI50,MDA-MB-435,2.06 µM (inactive)
same,GI50,SF-539,1.71 µM (inactive)
same,GI50,OVCAR-8,2.88 µM (inactive)
same,GI50,IGROV-1,2.35 µM (inactive)
same,GI50,BT-549,1.71 µM (inactive)
same,GI50,LOX IMVI,0.986 µM (active)
same,GI50,HOP-62,2.55 µM (inactive)
same,GI50,COLO 205,2.99 µM (inactive)
same,GI50,MDA-MB-231,3.07 µM (inactive)
same,GI50,KM12,1.93 µM (inactive)
same,GI50,HL-60,0.69 µM (active)
same,GI50,RPMI-8226,0.247 µM (active)
same,GI50,HCC 2998,1.5 µM (inactive)
same,GI50,SN12C,2.49 µM (inactive)
same,GI50,U-251,1.97 µM (inactive)
same,GI50,OVCAR-4,2.36 µM (inactive)
same,GI50,HOP-92,6.03 µM (inactive)
same,GI50,786-0,1.74 µM (inactive)
same,GI50,SF-268,3.51 µM (inactive)
same,GI50,ACHN,1.78 µM (inactive)
same,GI50,OVCAR-5,4.9 µM (inactive)
same,GI50,NCI-H23,2.01 µM (inactive)
same,GI50,MCF7,0.628 µM (active)
same,GI50,HT-29,0.78 µM (active)
same,GI50,A498,1.73 µM (inactive)
same,GI50,SW-620,1.46 µM (inactive)
same,GI50,DU-145,3.91 µM (inactive)
same,GI50,UACC-257,3.64 µM (inactive)
same,GI50,SK-MEL-28,2.81 µM (inactive)
same,GI50,T47D,6.56 µM (inactive)
same,GI50,SK-MEL-2,2.68 µM (inactive)
same,GI50,EKVX,3.35 µM (inactive)
same,GI50,TK-10,3.66 µM (inactive)
same,GI50,RXF 393,1.61 µM (inactive)
same,GI50,SF-295,2.39 µM (inactive)
same,GI50,SR,0.67 µM (active)
same,GI50,SK-OV-3,3.48 µM (inactive)
same,GI50,CCRF-CEM,1.78 µM (inactive)
same,GI50,MOLT-4,1.76 µM (inactive)
same,GI50,SK-MEL-5,2.61 µM (inactive)
same,GI50,UO-31,1.77 µM (inactive)
same,GI50,OVCAR-3,1.97 µM (inactive)
same,GI50,NCI-H226,2 µM (inactive)
same,GI50,NCI-H460,1.9 µM (inactive)
same,GI50,NCI/ADR-RES,3.12 µM (inactive)
same,GI50,Hs-578T,3.34 µM (inactive)
same,GI50,MDA-N,1.62 µM (inactive)
same,GI50,A549,2.47 µM (inactive)
same,GI50,CAKI-1,3.22 µM (inactive)
same,GI50,SNB-75,6.05 µM (inactive)
same,GI50,UACC-62,1.94 µM (inactive)
same,GI50,HCT-116,0.219 µM (active)
Cc1cc(CN2CCCCC2)c(O)c(CN2CCCCC2)c1,GI50,SNB-19,> 100 µM (inactive)
same,GI50,M14,> 100 µM (inactive)
same,GI50,Malme-3M,> 100 µM (inactive)
same,GI50,PC-3,> 100 µM (inactive)
same,GI50,HCT-15,> 100 µM
same,GI50,K562,> 100 µM (inactive)
same,GI50,MDA-MB-435,> 100 µM (inactive)
same,GI50,OVCAR-8,> 100 µM (inactive)
same,GI50,IGROV-1,> 100 µM (inactive)
same,GI50,BT-549,> 100 µM (inactive)
same,GI50,LOX IMVI,> 100 µM (inactive)
same,GI50,HOP-62,> 100 µM (inactive)
same,GI50,COLO 205,> 100 µM (inactive)
same,GI50,MDA-MB-231,> 100 µM (inactive)
same,GI50,KM12,> 100 µM (inactive)
same,GI50,HL-60,> 100 µM (inactive)
same,GI50,RPMI-8226,22.8 µM (inactive)
same,GI50,HCC 2998,> 100 µM (inactive)
same,GI50,SN12C,> 100 µM (inactive)
same,GI50,NCI-H522,> 100 µM (inactive)
same,GI50,U-251,> 100 µM (inactive)
same,GI50,OVCAR-4,> 100 µM (inactive)
same,GI50,HOP-92,> 100 µM (inactive)
same,GI50,786-0,> 100 µM (inactive)
same,GI50,SF-268,> 100 µM (inactive)
same,GI50,ACHN,> 100 µM (inactive)
same,GI50,OVCAR-5,> 100 µM (inactive)
same,GI50,NCI-H23,> 100 µM (inactive)
same,GI50,MCF7,> 100 µM (inactive)
same,GI50,HT-29,> 100 µM (inactive)
same,GI50,A498,> 100 µM (inactive)
same,GI50,SW-620,> 100 µM (inactive)
same,GI50,DU-145,> 100 µM (inactive)
same,GI50,UACC-257,> 100 µM (inactive)
same,GI50,SK-MEL-28,> 100 µM (inactive)
same,GI50,T47D,> 100 µM (inactive)
same,GI50,SK-MEL-2,> 100 µM (inactive)
same,GI50,EKVX,> 100 µM (inactive)
same,GI50,TK-10,> 100 µM (inactive)
same,GI50,RXF 393,> 100 µM (inactive)
same,GI50,SF-295,> 100 µM (inactive)
same,GI50,SR,> 100 µM (inactive)
same,GI50,SK-OV-3,> 100 µM (inactive)
same,GI50,CCRF-CEM,41.3 µM (inactive)
same,GI50,SK-MEL-5,> 100 µM (inactive)
same,GI50,UO-31,> 100 µM (inactive)
same,GI50,OVCAR-3,> 100 µM (inactive)
same,GI50,NCI-H226,> 100 µM (inactive)
same,GI50,NCI-H460,> 100 µM (inactive)
same,GI50,NCI/ADR-RES,> 100 µM (inactive)
same,GI50,Hs-578T,> 100 µM (inactive)
same,GI50,MDA-N,> 100 µM (inactive)
same,GI50,A549,> 100 µM (inactive)
same,GI50,CAKI-1,> 100 µM (inactive)
same,GI50,SNB-75,> 100 µM (inactive)
same,GI50,UACC-62,> 100 µM (inactive)
same,GI50,HCT-116,> 100 µM (inactive)
